Measured values published in patent US20220017433A1 (UNIVERSITÄT ZÜRICH, priority 2018, published 2022).

Assay: Water solubility of the chelating compounds
Type: physicochemical
Conditions: aqueous stock solution, pH lowered with HCl

Desferrioxamine-p-arylazide [DFO-ArN3]
pH below which the compound starts to precipitate slowly: ~9
